Source: patent US7781439B2, “Pyrazolopyrimidines” (Bayer CropScience AG, priority 2005, dated 2010)
Read-outs that look alike come from different tables or passages of the source. Marks after values point to notes of the source that are not given here. Values belong to the molecule of their own block, whether it stands above or below them.

Experiments:
[1] = tested on: A375 cells; test: LIVE/DEAD cytotoxicity assay, inhibition of cell proliferation, A375; type: cell-based, human; conditions: for GI50: Homo sapiens, read-out: log GI50 values (M), A375 cells (converted)
Description: (§1) Compounds of the present invention were tested for a possible cytotoxic or proliferation-inhibiting activity on the human tumour cell lines HeLa, SW620 and A375 (all from ATCC, American Type Culture Collection). To this end, the cells were plated in microtitre plates from Greiner (manufacturer No. 781092) at a cell density of 1000 cells/microtitre plate well and cultivated in cell culture medium at 37° C. under a 5% carbon dioxide atmosphere. Cell culture media and additives were purchased from Invitrogen and the foetal calf serum from Biochrom. The cell culture media for HeLa and A375 cells were used as stated by ATCC (HeLa: MEM, order No. 10370-047, with 1% sodium bicarbonate, 1% non-essential amino acids, 1% sodium pyruvate, 10% foetal calf serum, 0.1% gentamycin; A375: DMEM, order No. 41965-039, 2% sodium bicarbonate, 1% L-Glutamax, 10% foetal calf serum, 0.1% gentamycin). The culture medium for the SW620 cells consisted of DMEM, order No. 41965-039, 1% non-essential amino acids, 10% foetal calf serum, 0.1% gentamycin.
(§2) 24 hours after the cells had been plated in the microtitre plates, various concentrations of at most 100 μM down to a minimum concentration of 5 nM of the test compounds were added to the cells. Stock solutions of the test compounds (10 mM) were prepared in DMSO and stored at −20° C. For the cytotoxicity tests, the test compounds were diluted in the appropriate cell culture medium.
(§3) After a further 48 hours of incubation, the cells were washed with medium and analysed with the aid of a two-colour fluorescence cytotoxicity/viability test (LIVE/DEAD Viability/Cytotoxicity ASSAY Kit from Molecular Probes, order No. L-3224), according to the instructions of the manufacturer. To this end, the medium was aspirated and in each case 30 μl of LIVE/DEAD reagent per microtitre plate well were added to the cells, which were then incubated for 30 minutes. The cells were then washed with PBS (phosphate-buffered saline). The number of live cells was analysed by measuring the green fluorescence of the live dye calcein-AM as a component of the LIVE/DEAD reagent using a fluorescence plate reader (Flexstation, from Molecular Devices) at an excitation wavelength of 485 nm and an emission wavelength of 525 nm (Oral et al. 1998). Cells only with cell culture medium, without added test compounds, were treated in parallel and analysed as growth controls. The reference compounds used for anti-tumour agents having a cytotoxic or proliferation-inhibiting action were colchicine (from Merck/Calbiochem, order No 234115) and Taxol (baccatin III N-benzyl-b-phenylisoserine ester, from Merck/Calbiochem, order No. 580555) (Schiff and Horwitz 1980; Holmes et al., 1991). The cytotoxic effects of the test compounds were expressed as logarithmic GI50 values ((growth)-inhibiting logarithmic concentration value at which a cell growth reduced by 50% compared to the control without test compounds was measured; Xia et al., 2001; Smith et al., 2005).

[2] = tested on: HeLa cells; test: LIVE/DEAD cytotoxicity assay, inhibition of cell proliferation, HeLa; type: cell-based, human; conditions: for GI50: Homo sapiens, read-out: log GI50 values (M), HeLa cells (converted)
Description: as §1, §2, §3

[3] = tested on: SW620 cells; test: LIVE/DEAD cytotoxicity assay, inhibition of cell proliferation, SW620; type: cell-based, human; conditions: for GI50: Homo sapiens, read-out: log GI50 values (M), SW620 cells (converted)
Description: as §1, §2, §3

[4] = log P determination; type: physicochemical; conditions: for log P: intermediates of formula drawing 23, table
[5] = HeLa cells, 48 hours incubation, calcein-AM fluorescence
[6] = A375 cells, 48 hours incubation, calcein-AM fluorescence
[7] = values marked *, HPLC, gradient method, acetonitrile/0.1% aqueous phosphoric acid, EEC Directive 79/831 Annex V. A8
[8] = SW620 cells, 48 hours incubation, calcein-AM fluorescence
[9] = values marked *, no footnote carries the single asterisk, general footnote: HPLC gradient method, acetonitrile/0.1% aqueous phosphoric acid
[10] = EEC Directive 79/831 Annex V. A8 by HPLC (gradient method, acetonitrile/0.1% aqueous phosphoric acid)
[11] = HPLC, gradient method, acetonitrile/0.1% aqueous phosphoric acid (EEC Directive 79/831 Annex V. A8)

SMILES: CC(=O)O[C@H]1C(=O)[C@@]2(C)[C@H]([C@H](OC(=O)c3ccccc3)[C@]3(O)C[C@H](OC(=O)[C@H](O)[C@@H](NC(=O)c4ccccc4)c4ccccc4)C(C)=C1C3(C)C)[C@]1(OC(C)=O)CO[C@@H]1C[C@@H]2O [Taxol, reference compound]
GI50 ([1]; A-375, A375 cells, 48 hours incubation, calcein-AM fluorescence): 2e-07 M | GI50 [2, 5]: 1.58e-08 M | GI50 ([3]; SW-620, SW620 cells, 48 hours incubation, calcein-AM fluorescence): 1.26e-07 M

log p [4, 7]: 3.24*
SMILES: CC(C)Nc1c(-c2c(F)cc(F)cc2F)c(Cl)nc2c(C(=O)NS(C)(=O)=O)cnn12 [Example 345]
log GI50 values (M), A375 cells [1, 6]: 6.3 M | log GI50 values (M), HeLa cells [2, 5]: 6.6 M | log GI50 values (M), SW620 cells [3, 8]: 6.4 M

SMILES: COc1cc2c(c(OC)c1OC)-c1ccc(OC)c(=O)cc1[C@@H](NC(C)=O)CC2 [colchicine, reference compound]
GI50 ([1]; A-375, 48 h): 2e-08 M | GI50 ([2]; HeLa, 48 h): 1.58e-08 M | GI50 ([3]; SW-620, 48 h): 3.16e-08 M

log p [4, 9]: 3.85*
SMILES: CC(C)[C@@H](C)Nc1c(-c2c(F)cc(F)cc2F)c(Cl)nc2c(C(=O)NS(C)(=O)=O)cnn12 [Example 177]
log GI50 values (M), A375 cells [1, 6]: 8.1 M | log GI50 values (M), HeLa cells [2, 5]: >8 M | log GI50 values (M), SW620 cells [3, 8]: 6.7 M

log p [4, 7]: 3.57*
SMILES: CC(C)Nc1c(-c2ccc(F)cc2Cl)c(Cl)nc2c(C(=O)NS(C)(=O)=O)cnn12 [Example 351]

log P [4]: 4.51
SMILES: COC(=O)c1cnn2c(NC(C)C(C)(C)C)c(-c3c(F)cccc3Cl)c(Cl)nc12 (stereo not shown) [CH(CH3)—C(CH3)3, H, 2-Cl-6-F-phenyl]

log p ([4]; starting materials and intermediates, log P / log P*, read-out: log P): 4.07
SMILES: COC(=O)c1cnn2c(NC(C)C)c(-c3ccc(Cl)cc3Cl)c(Cl)nc12 [Methyl 5-chloro-6-(2,4-dichlorophenyl)-7-isopropylaminopyrazolo[1,5-a]pyrimidine-3-carboxylate]

log p [4, 9]: 3.56*
SMILES: C[C@H](Nc1c(-c2c(F)cc(F)cc2Cl)c(Cl)nc2c(C(=O)NS(C)(=O)=O)cnn12)C(F)(F)F [Example 117]
log GI50 values (M), A375 cells [1, 6]: 6.6 M | log GI50 values (M), HeLa cells [2, 5]: 6.8 M | log GI50 values (M), SW620 cells [3, 8]: 6.6 M

log p [4, 10]: 4.26
SMILES: CC(Nc1c(-c2ccc(F)cc2Cl)c(Cl)nc2c(C(=O)Nc3cnn(C)c3)cnn12)C(C)(C)C (stereo not shown) [compound 1187]

log p [4, 9]: 4.89*
SMILES: C[C@@H](Nc1c(-c2ccc(Cl)cc2Cl)c(Cl)nc2c(C(=O)NS(C)(=O)=O)cnn12)C(C)(C)C [Example 39]

log p ([4]; values printed without asterisk, EEC Directive 79/831 Annex V. A8, HPLC gradient method, acetonitrile/0.1% aqueous phosphoric acid (general footnote)): 4.38
SMILES: C[C@@H](Nc1c(-c2c(F)cc(F)cc2Cl)c(Cl)nc2c(C(=O)NS(C)(=O)=O)cnn12)C(C)(C)C [Example 33]

log P [4]: 3.75
SMILES: COC(=O)c1cnn2c(NC(C)C(F)(F)F)c(-c3ccc(F)cc3Cl)c(Cl)nc12 (stereo not shown) [CH(CH3)(CF3), H, 2-Cl-4-F-phenyl]

log P [4]: 3.15
SMILES: COC(=O)c1cnn2c(NC(C)C(C)(C)C)c(-c3ncncc3F)c(Cl)nc12 (stereo not shown) [CH(CH3)—C(CH3)3, H, 5-F-pyrimidin-4-yl]

log p [4, 11]: 4.41
SMILES: Cc1ccc(-c2c(Cl)nc3c(C(=O)NN4CCOCC4)cnn3c2NC(C)C(C)(C)C)c(Cl)c1 (stereo not shown) [compound 1181]

log p [4, 11]: 6.61
SMILES: Cc1cc(F)ccc1-c1c(Cl)nc2c(C(=O)Nc3ncccn3)cnn2c1NC(C)C(C)C (stereo not shown) [compound 1179]

log p [4, 11]: 3.63
SMILES: Cc1ccsc1-c1c(Cl)nc2c(C(=O)NN3CCOCC3)cnn2c1NC(C)C(C)C (stereo not shown) [compound 1183]

log p [4, 9]: 4.01*
SMILES: CC(C)[C@@H](C)Nc1c(-c2ccccc2Cl)c(Cl)nc2c(C(=O)NS(C)(=O)=O)cnn12 [Example 189]

log p [4, 10]: 3.95
SMILES: CC(C)C(C)Nc1c(-c2ccc(F)cc2Cl)c(Cl)nc2c(C(=O)Nc3cnn(C)c3)cnn12 (stereo not shown) [compound 1189]
